Measurements published in patent publication US10206909B2, “3-(1H-pyrrolo[2,3-B]pyridin-2-yl)-1H-pyrazolo[4,3-B]pyridines and therapeutic uses thereof” (Samumed, LLC, priority 2015, dated 2019).

Key:
Type in all cases: cell-based
[1] = test system: IL-6 (THP-1 cells); test: IL-6 inhibition in LPS-stimulated THP-1 cells (HTRF); conditions: Homo sapiens; THP-1 cells, LPS 500 ng/mL, 22 hours, IL6 HTRF
Method: Human Monocyte Cell Culture: Human monocyte cell line (THP-1 cells; Catalog # TIB-202, ATCC, Manassas, Va.) were cultured in Roswell Park Memorial Institute (RPMI) 1640 Medium (Catalog #21870-100, Buffalo, N.Y.) with 1% L-glutamine, 1% HEPES, 1% Sodium Pyruvate, 2% Sodium Bicarbonate supplemented with 100 units/mL penicillin, 50 μg/mL streptomycin, 2-mercaptoethanol (0.05 mM) [basal medium] and 10% fetal bovine serum (Catalog #16140089, Life Technologies, Carlsbad, Calif.) at 37° C. and 5% CO2.
Compound Screening: THP-1 cells were cultured in basal media with 1% FBS for 24 hours before the start of the assay. Each compound was dissolved in DMSO as a 10 mM stock and used to prepare compound source plates. Serial dilution (1:3, 10-point dose-response curves starting from 10 μM) and compound transfer was performed using the ECHO 550 (Labcyte, Sunnyvale, Calif.) into 384-well white low volume assay plates (Greiner Bio-One) with appropriate DMSO backfill for a final DMSO concentration of 0.1%. THP-1 cells were plated at 5000 cells/well in the 384-well plates and incubated at 37° C. for 2 h. 500 ng/mL of LPS was added after 2 hours and cells were incubated for another 22 hours at 37° C. Plates were spun in a centrifuge for 1 minute at […] and a mixture of anti-IL6 XL665, and anti-IL6 Cryptate diluted in reconstitution buffer (Cisbio Inc.) was added to each well. Following incubation for 3 hrs at room temperature, Homogeneous Time-Resolved Fluorescence (HTRF) was measured using the Envision (Perkin Elmer) at 665 nm and […]. The ratio of fluorescence at 665 nm to 620 nm was used as a readout for IL6 quantification. All samples were processed in duplicate. Readings were normalized to DMSO treated cells and normalized activities were utilized for EC50 calculations using the dose-response log (inhibitor) vs. response —variable slope (four parameters) nonlinear regression feature available in GraphPad Prism 5.0 (or Dotmatics). For EC50 of >10 μM, the percent inhibition at 10 μM is provided.

[2] = test system: Wnt activity (Sp5-Luc reporter, SW480 colon carcinoma cells); test: Wnt activity screening assay: Sp5-Luc reporter gene assay in SW480 cells; conditions: Homo sapiens, SW480 cells, overnight incubation
From the text: The screening assay for Wnt activity is described as follows. Reporter cell lines can be generated by stably transducing cancer cell lines (e.g., colon cancer) or primary cells (e.g., IEC-6 intestinal cells) with a lentiviral construct that includes a Wnt-responsive promoter driving expression of the firefly luciferase gene.
SW480 colon carcinoma cells were transduced with a lentiviral vector expressing luciferase with a human Sp5 promoter consisting of a sequence of eight TCF/LEF binding sites. SW480 cells stably expressing the Sp5-Luc reporter gene and a hygromycin resistance gene were selected by treatment with 150 μg/mL of hygromycin for 7 days. These stably transduced SW480 cells were expanded in cell culture and used for all further screening activities. Each compound was dissolved in DMSO as a 10 mM stock and used to prepare compound source plates. Serial dilution (1:3, 10-point dose-response curves starting from 10 μM) and compound transfer was performed using the ECHO 550 (Labcyte, Sunnyvale, Calif.) into 384-well white solid bottom assay plates (Greiner Bio-One) with appropriate DMSO backfill for a final DMSO concentration of 0.1%. For Sp5-Luc reporter gene assays, the cells were plated at 4,000 cells/well in 384-well plates with medium containing 1% fetal bovine serum and incubated overnight at 37° C. and 5% CO2. Following incubation, 20 μl of BrightGlo luminescence reagent (Promega) was added to each well of the 384-well assay plates. The plates were placed on an orbital shaker for 2 min and then luminescence was quantified using the Envision (Perkin Elmer) plate reader. Readings were normalized to DMSO only treated cells, and normalized activities were utilized for EC50 calculations using the dose-response log (inhibitor) vs. response -variable slope (four parameters) nonlinear regression feature available in GraphPad Prism 5.0 (or Dotmatics). For EC50 of >10 μM, the percent inhibition at 10 μM is provided.

[3] = test system: primary human fibroblasts derived from IPF patients (LL29 cells); test: Inhibition of the fibrotic process: αSMA staining in TGF-β1 treated fibroblasts; conditions: Fibroblast, 96 h, LL29 cells, TGF-β1 20 ng/mL, 4 days, % αSMA positive cells
From the text: Representative compounds were screened using primary human fibroblasts (derived from IPF patients) treated with TGF-β1 to determine their ability to inhibit the fibrotic process.
Human Fibroblast Cell Culture: Primary human fibroblasts derived from IPF patients (LL29 cells) [^1Xiaoqiu Liu, et. al., “Fibrotic Lung Fibroblasts Show Blunted Inhibition by cAMP Due to Deficient cAMP Response Element-Binding Protein Phosphorylation”, Journal of Pharmacology and Experimental Therapeutics (2005), 315(2), 678-687; ^2Watts, K. L., et. al., “RhoA signaling modulates cyclin D1 expression in human lung fibroblasts; implications for idiopathic pulmonary fibrosis”, Respiratory Research (2006), 7(1), 88] were obtained from American Type Culture Collection (ATCC) and expanded in F12 medium supplemented with 15% Fetal Bovine Serum and Penicillin/Streptomycin.
Compound Screening: Each compound was dissolved in DMSO as a 10 mM stock and used to prepare compound source plates. Serial dilution (1:2, 11-point dose-response curves from 10 μM to […]) and compound transfer was performed using the ECHO 550 (Labcyte, Sunnyvale, Calif.) into 384-well clear bottom assay plates (Greiner Bio-One) with appropriate DMSO backfill for a final DMSO concentration of 0.1%. LL29 cells are plated at 1,500 cells/well in 80 μL/well F12 medium supplemented with 1% Fetal Bovine Serum. One hour after addition of the cells, TGF-β1 (Peprotech; 20 ng/mL) was added to the plates to induce fibrosis (ref. 1 and 2 above). Wells treated with TGF-β1 and containing DMSO were used as controls. Cells were incubated at 37° C. and 5% CO2 for 4 days. Following incubation for 4 days, SYTOX green nucleic acid stain (Life Technologies [Thermo Fisher Scientific]) was added to the wells at a final concentration of 1 μM and incubated at room temperature for 30 min. Cells were then fixed using 4% formaldehyde (Electron Microscopy Sciences), washed 3 times with PBS followed by blocking and permeabilization using 3% Bovine Serum Albumin (BSA; Sigma) and 0.3% Triton X-100 (Sigma) in PBS. Cells were then stained with antibody specific to α-smooth muscle actin (αSMA; Abcam) (ref. 1 and 2 above) in 3% Bovine Serum Albumin (BSA; Sigma) and 0.3% Triton X-100 (Sigma) in PBS, and incubated overnight at 4° C. Cells were then washed 3 times with PBS, followed by incubation with Alexa Flor-647 conjugated secondary antibody (Life Technologies [Thermo Fisher Scientific]) and DAPI at room temperature for 1 hour. Cells were then washed 3 times with PBS and plates were sealed for imaging. αSMA staining was imaged by excitation at 630 nm and emission at 665 nm and quantified using the Compartmental Analysis program on the CellInsight CX5 (Thermo Scientific). Dead or apoptotic cells were excluded from analysis based on positive SYTOX green staining. % of total cells positive for αSMA were counted in each well and normalized to the average of 11 wells treated with TGF-β1 on the same plate using Dotmatics' Studies Software. The normalized averages (fold change over untreated) of 3 replicate wells for each compound concentration were used to create dose-responses curves and EC50 values were calculated using non-linear regression curve fit in the Dotmatics' Studies Software. For EC50 of >10 μM, the percent inhibition at 10 μM is provided.

[4] = test system: SW480 colon cancer cells; test: Cell viability assay (CellTiter-Blue); conditions: Homo sapiens, 96 h; SW480 cell viability, four days, CellTiter-Blue
Method: Representative compounds were screened using the following assay procedure to assess the effect on cell viability as described below.
Each compound was dissolved in DMSO as a 10 mM stock and used to prepare compound source plates. Serial dilution (1:3, 8-point dose-response curves from 10 μM to 0.0045 μM) and compound transfer was performed using the ECHO 550 (Labcyte, Sunnyvale, Calif.) into 96-well clear bottom, black-walled plates (Corning-Costar).
Approximately 2×10^3 SW480 colon cancer cells were seeded into each well and allowed to incubate in the presence or absence of compound for four days at 37° C./5% CO2. Eight replicates of DMSO-treated cells served as controls and cells treated with compound were performed in duplicate.
After incubation, 20 μL of CellTiter-Blue (Promega) was added to each well allowed to incubate for approximately 3 hours. This reagent was a buffered solution which contains resazurin, metabolically active cells were able to reduce rezarurin (blue) into resorufin (pink) which was highly fluorescent. This measured fluorescence was used as a readout for cell viability.
After incubation, the plates were read at Ex 560 nm Em 590 nm (Cytation 3, BioTek). Dose-response curves were generated and EC50 concentration values were calculated using non-linear regression curve fit in the GraphPad Prism (San Diego, Calif.) or Dotmatics' Studies Software (Bishops Stortford, UK). For EC50 of >10 μM, the percent inhibition at 10 μM is provided.

Compound	EC50 [1]	EC50 [2]	EC50 [3]	EC50 [4]
CC(C)Nc1cncc(-c2ccc3[nH]nc(-c4cc5c(-c6cccs6)ccnc5[nH]4)c3n2)c1 [Compound 348, N-Isopropyl-5-(3-(4-(thiophen-2-yl)-1H-pyrrolo[2,3-b]pyridin-2-yl)-1H-pyrazolo[4,3-b]pyridin-5-yl)pyridin-3-amine]	1350 nM	1340 nM	994 nM	4270 nM
CN(C)CCNc1cc(F)cc(-c2ccnc3[nH]c(-c4n[nH]c5ccc(-c6cncc(NC(=O)c7ccccc7)c6)nc45)cc23)c1 [Compound 459, N-(5-(3-(4-(3-((2-(Dimethylamino)ethyl)amino)-5-fluorophenyl)-1H-pyrrolo [2,3-b]pyridin-2-yl)-1H-pyrazolo[4,3-b]pyridin-5-yl)pyridin-3-yl)benzamide]	9 nM	1500 nM	738 nM	1940 nM
